Data reported in paper PMC12566046, “Arylpiperazinyl-Benzocycloheptapyrrole-Carboxamides Endowed with Dual Anticancer and Antiviral Activities” (Molecules, 2025).
Like-named read-outs stand apart in the source and are kept apart here.

How the values were obtained:
NCI-60 cell line panel = test: NCI-60 single-dose assay, whole panel; format: cell-based, human; conditions: summary over the panel
Text: (§1) We first evaluated the cytotoxic activity of tricyclic-pyrrole carboxamides 1–20 using the NCI-60 cell line panel, representing nine different human cancers: leukemia, melanoma, and cancers of the lung, colon, central nervous system (CNS), ovary, kidney, prostate, and breast (the one-dose graph for compounds 1–20 is reported in Supplementary Materials, Figures S43–S62). Compounds 1, 5, 10, 11, 17, and 20 satisfied pre-determined threshold inhibition criteria in a minimum number of cell lines; therefore, they were also tested in the full five-dose assay (Figures S63–S68 in the Supplementary Materials).

[1] = system: ZIKV, strain Brazil/2016/INMI1; test: ZIKV viral yield reduction assay on Huh-7 cells; format: cell-based, Zika virus; conditions: for EC50: Zika virus
Procedure: We developed a protocol to screen the potential antiviral activity of compounds 1–20 against ZIKV (strain Brazil) on Huh-7 cells, against an H1N1 IAV strain (PR/8/1934) on MDCK cells, and against SARS-CoV-2 (strain Milano) on Vero-TMPRSS. Each compound was tested in duplicate at concentrations of 50 μM, 5 μM, and 0.5 μM. Treatment was applied immediately after infection, and at 24–48 h post-infection, supernatants were collected to assess viral yield, determined as PFU/mL for ZIKV and SARS-CoV-2 or as TCID50/mL for IAV. The test allowed us to evaluate both the antiviral action and the cytotoxicity of each compound, comparing them with reference compounds, such as sofosbuvir for ZIKV and EIDD-1931 for IAV and SARS-CoV-2 (Supplementary Materials, Figures S87–S89).
Viral yield reduction assays for ZIKV and SARS-CoV-2 were performed as previously described by Plicanti. Briefly, 1 × 10^4 Huh-7 cells/well and 1.2 × 10^4 VERO TMPRSS cells/well were infected with ZIKV (MOI 1) or SARS-CoV-2 (MOI 0.05) in a primary 96-well plate for 2 h at 37 °C, 5% CO2. […] Supernatants were collected after 48 h (Huh-7) or 24 h (VERO TMPRSS), diluted 3-fold, and added onto VERO E6 or VERO TMPRSS monolayers, respectively. After 2 h at 37 °C, the inoculum was replaced with 0.75% carboxymethyl cellulose (Merck®, Darmstadt, Germany) in DMEM 2% FBS. After 48–72 h, cells were then fixed with 4% buffered formalin solution (Merck®, Darmstadt, Germany) and stained with 1% crystal violet (Merck®, Darmstadt, Germany). Titres and percentage of inhibition were calculated as follows:
PFU/mL = number of plaques*3^n/vol infection, where n is the dilution where plaques were counted:% inhibition = 100 × (1 − Titre-compound/Titre-untreated control) where Titre-compound and Titre-untreated control are the titres (PFU/mL) obtained on cells treated with compound or DMSO, respectively.
SI was obtained by dividing CC50 by EC50 for each drug/virus/cell line. Compounds with SI values ≥ 10 were active in vitro.

[2] = Cytotoxicity on uninfected Huh-7 cells (WST-8, crystal violet); conditions: human, uninfected Huh-7 cells
Procedure: (§2) The toxicity of the compounds at the same concentration was tested on the same cells in parallel.
(§3) Cytotoxic effects were evaluated on uninfected cells using the WST-8 assay (Orangu, Cell Guidance Systems, Cambridge, UK) and the crystal violet assay [23]. […] Huh-7, MDCK, and Vero TMPRSS cells were seeded at 1 × 10^4, 1.5 × 10^4, and 1.2 × 10^4 cells/well, respectively, and incubated for 48 h (Huh-7 and MDCK) or 24 h (VERO TMPRSS), following conditions matching those of the corresponding antiviral assays in terms of timing and culture medium. At the end of incubation, the medium was replaced with a 10% WST-8 solution in DMEM and incubated for 1 h at 37 °C. Optical density (OD) was then measured at 450 nm using a Varioskan LUX plate reader (ThermoFisher Scientific, Milano, Italy). Subsequently, cells were fixed with 4% buffered formalin solution (Merck®, Darmstadt, Germany), stained with 1% crystal violet (Merck®, Darmstadt, Germany), and the dye was solubilized in 30% acetic acid for 30 min under shaking. OD was then measured at 595 nm as an additional readout of cell viability. The percentage of viability at each concentration was calculated using the formula:% viability = 100 × (ODcompound/ODuntreated control) where ODcompound and ODuntreated are the OD of the cells treated with compound or DMSO, respectively.
(§4) The CC50 value was determined by nonlinear regression analysis on GraphPad Prism 7 (San Diego, CA, USA).

[3] = system: MCF-7 (breast cancer cell line); test: NCI-60 single-dose assay; format: cell-based, human; conditions: Homo sapiens, MCF7, read-out: growth inhibition (GI%) and cytotoxicity (negative values), MCF-7, 10^−5 M
Text: as §1

[4] = system: SARS-CoV-2 VR PV10734 (strain Milano); test: microbe, parasite or virus in culture; format: cell-based
in vitro [5] = conditions: dog
in vitro [6] = conditions: African green monkey
[7] = system: IAV strain A/PR/8/34 (H1N1)
MDCK cells = test: Cytotoxicity on uninfected MDCK cells (WST-8, crystal violet)
[8] = system: K-562 (leukemia cell line); test: NCI-60 single-dose assay; format: cell-based; conditions: Homo sapiens, K562, read-out: growth inhibition (GI%) and cytotoxicity (negative values)
Text: as §1

[9] = system: CCRF-CEM (leukemia cell line); test: NCI-60 single-dose assay; format: cell-based, human; conditions: Homo sapiens, read-out: growth inhibition (GI%) and cytotoxicity (negative values)
Text: as §1

[10] = system: COLO 205 (colon cancer cell line); test: NCI-60 single-dose assay; format: cell-based, human; conditions: Homo sapiens, COLO 205, read-out: growth inhibition (GI%) and cytotoxicity (negative values)
Text: as §1

[11] = system: HCC-2998 (colon cancer cell line); test: NCI-60 single-dose assay; format: cell-based, human; conditions: Homo sapiens, HCC 2998, read-out: growth inhibition (GI%) and cytotoxicity (negative values)
Text: as §1

[12] = system: HCT-116 (colon cancer cell line); test: NCI-60 single-dose assay; format: cell-based, human; conditions: Homo sapiens, HCT-116, read-out: growth inhibition (GI%) and cytotoxicity (negative values)
Text: as §1

[13] = system: HCT-15 (colon cancer cell line); test: NCI-60 single-dose assay; format: cell-based, human; conditions: Homo sapiens, HCT-15, read-out: growth inhibition (GI%) and cytotoxicity (negative values)
Text: as §1

[14] = system: HL-60(TB) (leukemia cell line); test: NCI-60 single-dose assay; format: cell-based, human; conditions: Homo sapiens, HL-60, read-out: growth inhibition (GI%) and cytotoxicity (negative values)
Text: as §1

[15] = system: HT29 (colon cancer cell line); test: NCI-60 single-dose assay; format: cell-based, human; conditions: Homo sapiens, HT-29, read-out: growth inhibition (GI%) and cytotoxicity (negative values)
Text: as §1

[16] = system: KM12 (colon cancer cell line); test: NCI-60 single-dose assay; format: cell-based, human; conditions: Homo sapiens, KM12, read-out: growth inhibition (GI%) and cytotoxicity (negative values)
Text: as §1

M14 (melanoma cell line) = test: NCI-60 single-dose assay; format: cell-based, human; conditions: Homo sapiens, M14, read-out: growth inhibition (GI%) and cytotoxicity (negative values)
Text: as §1

[17] = system: MOLT-4 (leukemia cell line); test: NCI-60 single-dose assay; format: cell-based, human; conditions: Homo sapiens, MOLT-4, read-out: growth inhibition (GI%) and cytotoxicity (negative values)
Text: as §1

[18] = system: NCI-H460 (non-small cell lung cancer cell line); test: NCI-60 single-dose assay; format: cell-based, human; conditions: Homo sapiens, NCI-H460, read-out: growth inhibition (GI%) and cytotoxicity (negative values)
Text: as §1

[19] = system: RPMI-8226 (leukemia cell line); test: NCI-60 single-dose assay; format: cell-based, human; conditions: Homo sapiens, RPMI-8226, read-out: growth inhibition (GI%) and cytotoxicity (negative values)
Text: as §1

[20] = system: SK-MEL-5 (melanoma cell line); test: NCI-60 single-dose assay; format: cell-based, human; conditions: Homo sapiens, SK-MEL-5, read-out: growth inhibition (GI%) and cytotoxicity (negative values)
Text: as §1

SR (leukemia cell line) = test: NCI-60 single-dose assay; format: cell-based, human; conditions: Homo sapiens, read-out: growth inhibition (GI%) and cytotoxicity (negative values)
Text: as §1

[21] = system: SW-620 (colon cancer cell line); test: NCI-60 single-dose assay; format: cell-based, human; conditions: Homo sapiens, SW-620, read-out: growth inhibition (GI%) and cytotoxicity (negative values)
Text: as §1

in vitro [22] = conditions: human
Procedure: as §2, §3, §4

[23] = preliminary screening (50, 5, 0.5 μM), Huh-7, read-out: ZIKV/Huh‐7 EC50
[24] = Huh-7, read-out: ZIKV/Huh‐7 EC50
[25] = Severe acute respiratory syndrome coronavirus 2, preliminary screening (50, 5, 0.5 μM), Vero TMPRSS, read-out: SARS‐CoV‐2/Vero TMPRSS EC50

| SMILES | growth inhibition (GI%) reached against cancer cell lines of the NCI-60 panel (NCI-60 cell line panel) | EC50 [1, 23] | CC50 at 48 h [2] | EC50 [1, 24] | EC50 [4, 25] | CC50 (in vitro [5]) | CC50 at 24 h (in vitro [6]) | inhibition at 10 µM [8] | inhibition at 10 µM [12] | inhibition at 10 µM [20] | further results |
| --- | --- | --- | --- | --- | --- | --- | --- | --- | --- | --- | --- |
| O=C(NCCN1CCN(c2ccccc2)CC1)c1[nH]c2c(c1Cl)CCCc1ccccc1-2 [Compound 2, 3-Chloro-N-(2-(4-phenylpiperazin-1-yl)ethyl)-1,4,5,6-tetrahydrobenzo[6,7]cyclohepta[1,2-b]pyrrole-2-carboxamide] | < 60% | 43.9 µM | < 50 µM |  |  |  |  |  |  |  |  |
| O=C(NCCN1CCN(c2ccccc2Cl)CC1)c1[nH]c2c(c1Cl)CCCc1ccccc1-2 [Compound 4] |  |  | 59.9 µM | 4.39 µM | 42.5 µM | 14.7 µM | 57.9 µM |  |  |  | inhibition at 10 µM [3]: 60% |
| O=c1nc(NO)ccn1[C@@H]1O[C@H](CO)[C@@H](O)[C@H]1O [EIDD-1931, reference compound] |  |  |  |  |  |  |  |  |  |  | EC50 ([4]; SARS-CoV-2, VERO TMPRSS cells, 24 h, full dose-response, read-out: EC50): 0.05 µM; EC50 ([4]; preliminary screening (50, 5, 0.5 μM), Vero TMPRSS, read-out: SARS‐CoV‐2/Vero TMPRSS EC50): 0.11 µM; EC50 ([7]; IAV, MDCK cells, 48 h, full dose-response): 0.39 µM; IAV/MDCK SI ([7]; preliminary screening): < 24.15; EC50 ([7]; read-out: IAV/MDCK EC50, preliminary screening (50, 5, 0.5 μM), MDCK): 2.07 µM; CC50 (Vero TMPRSS cells; VERO TMPRSS cells, 24 h, full dose-response): 22.2 µM; CC50 (Vero TMPRSS cells; read-out: SARS‐CoV‐2/Vero TMPRSS CC50, preliminary screening (50, 5, 0.5 μM), Vero TMPRSS): 13.4 µM; CC50 (MDCK cells; MDCK cells, 48 h, full dose-response): 138 µM; CC50 (MDCK cells; read-out: IAV/MDCK CC50, preliminary screening (50, 5, 0.5 μM), MDCK): < 50 µM |
| CCOc1ccccc1N1CCN(CCNC(=O)c2[nH]c3c(c2Cl)CCCc2ccccc2-3)CC1 [Compound 7] |  |  | 50.7 µM | 3.82 µM | 37.3 µM | 5.6 µM | 38.5 µM | 82.6% | 76.1% | 77.7% | inhibition at 10 µM [9]: < 60%; inhibition at 10 µM [10]: 88.8%; inhibition at 10 µM [11]: < 60%; inhibition at 10 µM [13]: 82.1%; inhibition at 10 µM [14]: < 60%; inhibition at 10 µM [15]: 72.7%; inhibition at 10 µM [16]: < 60%; inhibition at 10 µM (M14 (melanoma cell line)): 88.6%; inhibition at 10 µM [17]: 66.5%; inhibition at 10 µM [18]: 60.8%; inhibition at 10 µM [19]: 63.4%; inhibition at 10 µM (SR (leukemia cell line)): 70%; inhibition at 10 µM [21]: < 60% |
| O=C(NCCN1CCN(c2ccc(Cl)cc2)CC1)c1[nH]c2c(c1Cl)CCCc1ccccc1-2 [Compound 3] | < 60% | 3.24 µM | 62.6 µM |  |  |  | 143 µM |  |  |  |  |
| O=C(NCCN1CCN(c2ccc(Cl)c(Cl)c2)CC1)c1[nH]c2c(c1Cl)CCCc1ccccc1-2 [Compound 9] | < 60% | 3.24 µM | 65.5 µM |  |  |  | 67.7 µM |  |  |  |  |
| CC(C)OC(=O)[C@H](C)N[P@](=O)(OC[C@H]1O[C@@H](n2ccc(=O)[nH]c2=O)[C@](C)(F)[C@@H]1O)Oc1ccccc1 [sofosbuvir, reference compound] |  | 2.07 µM | 300 µM |  |  |  |  |  |  |  | selectivity index (SI) ([1]; ZIKV, Huh-7 cells, CC50/EC50): 178.32; EC50 ([1]; ZIKV, Huh-7 cells, 48 h, full dose-response, read-out: EC50): 1.47 µM; CC50 (in vitro [22]): 262 µM |
| COc1cccc(N2CCN(CCNC(=O)c3c(Cl)[nH]c4c3CCCc3ccccc3-4)CC2)c1 [Compound 16] |  |  |  |  |  | 42.9 µM | 50.2 µM | 77.6% | < 60% | 88.6% | inhibition at 10 µM [9]: < 60%; inhibition at 10 µM [10]: < 60%; inhibition at 10 µM [11]: < 60%; inhibition at 10 µM [13]: < 60%; inhibition at 10 µM [14]: < 60%; inhibition at 10 µM [15]: 74.9%; inhibition at 10 µM [16]: < 60%; inhibition at 10 µM [3]: 73%; inhibition at 10 µM [17]: < 60%; inhibition at 10 µM [19]: 60%; inhibition at 10 µM (SR (leukemia cell line)): 73.6%; inhibition at 10 µM [21]: < 60% |
| COc1cccc(N2CCN(CCNC(=O)c3[nH]c4c(c3Cl)CCCc3ccccc3-4)CC2)c1 [Compound 6] |  |  | 53.5 µM | 3.24 µM |  | 66 µM | 121 µM |  | 64% |  |  |
| N#Cc1ccccc1N1CCN(CCNC(=O)c2[nH]c3c(c2Cl)CCCc2ccccc2-3)CC1 [Compound 8, 3-Chloro-N-(2-(4-(2-cyanophenyl)piperazin-1-yl)ethyl)-1,4,5,6-tetrahydrobenzo[6,7]cyclohepta[1,2-b]pyrrole-2-carboxamide] |  | 2.87 µM | 50.6 µM |  | 58.4 µM | 119 µM | 67.5 µM | 62.4% |  | 75.3% |  |
